# Read-outs that look alike come from different tables or passages of the source.
# Assays:
# [1] = Solubility of Compound 1 in Kleptose solutions ('top-down' approach); type: physicochemical; details: formic acid 1.65 mg/mL
# Description: The Kleptose concentration varied from 30 to 100 mg/mL.
# [2] = tested on: IDH2 mutant cell line TF1-R140Q; test: Proliferation (total, HSC and progenitor cell count) in the TF1 assay; type: cell-based
# Description: Cells were plated at a density of 0.2e^6 cells/ml of 2 ml culture in 6 well plates.
# TF1 cells were cultured in the following media: RPMI containing HEPES and L-glutamine, 10% FBS, Pen/Strep, G418 (final conc 500 μg/ml), and GM-CSF (final conc 5 ng/ml). The cells were cultured for 7 days, with or without compound treatment as described in FIG. 91.
# For the hemoglobinization assay, TF1 cells were washed three times with PBS to remove residual GM-CSF then plated at (100,000 cells/ml). Cells were then induced to differentiate using EPO (2 unit/ml). Induction continued for 7 days with changing media on 4th day and adding media with fresh EPO. The cell pellets were collected and imaged for hemoglobinization content (as a surrogate for differentiation into blood lineage). Cells were pelleted, washed, stained with a panel of antibodies and analyzed by flow cytometry, using the following antibodies: […]
# physchem = type: physicochemical; details: organic solvent or mixture, thermodynamic from solid, drug solubility in formic acid
# Description: A solvent screen was conducted to identify suitable Class 3 solvents listed in the ICH (International Conference on Harmonisation) Q3C Guidance as the Class 3 solvents have a higher permitted daily exposure (PDE) level of 50 mg/day. A good solvent candidate was considered to have 1) good miscibility with water and 2) sufficiently low boiling point so that it can be easily removed during the lyophilization process.
# [3] = tested on: peripheral blood mononuclear cells (PBMCs) from myelofibrosis patients; test: Colony forming assay using myelofibrosis patient samples; type: cell-based, human
# Text: The following samples were used:
# MF13: De novo MF, characterized by JAK2 wt, FLT3 wt, NPM1 wt, CEBPA wt
# MF14: De novo MF, characterized by JAK2 wt, CALR exon9 mut, ASXL1 wt, MPLwt
# [4] = GA0087 PDX model ex vivo 3D methylcellulose CellTiter-Glo cell viability assay (IC50, matrix combination, Combination Index)
# Description: (§2) Materials and Methods: The stomach cancer cell line GA0087 was used in this study. […] Culture media was purchased from GIBCO or Sigma, USA.
# (§3) Everolimus was obtained from Selleck. Cisplatin was used as a reference drug, and was obtained from Hospira Australia pty Ltd.
# (§4) PDX tumor models were maintained at Crownbio HuPrime animal facility. Tumor growth was monitored weekly. Tumor volumes were measured in two dimensions using a caliper, and the volume was expressed in mm^3 using the formula: V=0.5 a×b^2 where a and b are the long and short diameters of the tumor, respectively. • 2. Mouse xenografts at tumor volume around 800 mm^3 were housed with sterile surgical tools and tumor tissue was minced into tiny pieces with scissors in small amount of PBS on a new tissue culture plate. • 3. The cell suspension was filtered through Falcon cell strainer. The nylon mesh was washed 3-5 times with PBS. • 4. The cell suspension was centrifuged at 1000 rpm for 5 minutes and the pellet was washed with PBS and centrifuged again. • 5. Red blood cells were removed using red blood cell lysis buffer. • 6. The cell suspension was centrifuged at 1000 rpm for 5 minutes and the pellet was washed with PBS and centrifuged again. • 7. The cell pallet was re-suspended with appropriate cell culture media for different cells. • 8. Cells were counted with Countstar by trypan blue exclusion.
# (§5) Day −1: Cell Plating • 1. The cells were harvested during the logarithmic growth period. The harvested cells were cultured with appropriate cell media and centrifuged at 1000 rpm for 3 minutes. […] (Cell concentration was adjusted according to the data base or density optimization assay). • 3. 3.5 mL of cell suspension was mixed with 6.5 mL of 1% methylcellulose. […] 90 μL cell suspensions were added to 96-well plates according to plate map with final cell density. Two duplicate plates were set up: one for day 0 reading (T0) and the other was cultured in incubator for reading at the end point.
# (§6) Day 0: T0 Plate Reading and Compound Treatment • 5.10 μL culture medium was added to T0 plate in each well for T0 reading. • 6.100 μl CellTiter-Glo® Reagent was added to each well. • 7. The contents were mixed for 2 minutes on an orbital shaker to facilitate cell lysis. • 8. The plates were allowed to incubate at room temperature for 10 minutes to stabilize luminescent signal. • 9. A backseal black sticker was placed to the bottom of each plate. • 10. The luminescence was read using EnVision Multi Label Reader. • 11.
# (§7) The solutions were stored at −20° C. […] The response score was calculated by normalizing to DMSO control. The combination index (CI) was calculated using Chou and Talalay method, wherein a CI of less than 1 indicates synergy. Cisplatin was used as control in the single compound dose response, but was not included in the combination test.
# (§8) After drug incubation, pictures for representative wells were taken using a phase contrast microscope. • 13. 100 μL CellTiter-Glo® Reagent was added to each well. • 14. Contents were mixed for 2 minutes on an orbital shaker to facilitate cell lysis. • 15. The plates were allowed to incubate at room temperature for 10 minutes to stabilize luminescent signal. • 16. Backseal black sticker was placed to the bottom of each plate. • 17. Luminescence was recorded using EnVision Multi Label Reader.
# (§9) In order to calculate IC50, a dose-response curve was fitted using nonlinear regression model with a sigmoidal dose response. The formula of surviving rate is shown below, and the IC50 was automatically produced by GraphPad Prism 5.0.
# (§10) The surviving rate (%)=(LumTest article−LumMedium control)/(LumNone treated−LumMedium control)×100%.
# [5] = tested on: stomach cancer cell line GA0087; test: as above
# Description: as §2, §3, §4, §5, §6, §7, §8, §9, §10
# [6] = tested on: GSPT1 and mTORC1 effectors in BON cells; test: Western blot of BON cell lysates after 120 h treatment; type: cell-based
# Description: BON cells were cultured in DMEM: F12K media containing 10% fetal bovine serum and penicillin/streptomycin antibiotics. […] Cells were harvested and probed with antibodies for western blots and imaged using a Li-Cor Odyssey imaging system. All total and phosphorylated antibodies were obtained from Cell Signaling Technology.
# [7] = tested on: BaF3 cells expressing hCRBN, hCRBN and JAK2 wt, or hCRBN and JAK2-V617F; test: Combination studies with JAK2 inhibitors in engineered BaF3 cells, CellTitre-Glo after 3 days; type: cell-based; details: IL3 dependent BaF3 lines
# Description: (§1) Everolimus was included as a control. The cell viability was then measured by CellTitre-Glo® after 3 days.
# [8] = tested on: IL3 independent JAK2 V617F BaF3 cells; test: as above; type: cell-based; details: compared to the IL3 dependent lines
# Description: as §1
smiles,measurement,setting,value
"O=C1CCC(N2Cc3cc(CNC(=O)C(F)(F)c4ccc(Cl)cc4)ccc3C2=O)C(=O)N1 (stereo not drawn) [Compound 1, 2-(4-chlorophenyl)-N-((2-(2,6-dioxopiperidin-3-yl)-1-oxoisoindolin-5-yl)methyl)-2,2-difluoroacetamide]",Assay at t = 0,[1]; Kleptose 30 mg/mL,0.114 mg/mL
same,Assay at t = 4 wks without Compound 1 crystal at 25° C.,[1]; Kleptose 30 mg/mL,0.036 mg/mL
same,Assay at t = 9 days with Compound 1 crystal at 25° C.,[1]; Kleptose 30 mg/mL,0.036 mg/mL
same,Assay at t = 0,[1]; Kleptose 60 mg/mL,0.115 mg/mL
same,Assay at t = 4 wks without Compound 1 crystal at 25° C.,[1]; Kleptose 60 mg/mL,0.114 mg/mL
same,Assay at t = 9 days with Compound 1 crystal at 25° C.,[1]; Kleptose 60 mg/mL,0.065 mg/mL
same,Assay at t = 0,[1]; Kleptose 70 mg/mL,0.115 mg/mL
same,Assay at t = 4 wks without Compound 1 crystal at 25° C.,[1]; Kleptose 70 mg/mL,0.114 mg/mL
same,Assay at t = 9 days with Compound 1 crystal at 25° C.,[1]; Kleptose 70 mg/mL,0.077 mg/mL
same,Assay at t = 0,[1]; Kleptose 80 mg/mL,0.116 mg/mL
same,Assay at t = 4 wks without Compound 1 crystal at 25° C.,[1]; Kleptose 80 mg/mL,0.114 mg/mL
same,Assay at t = 9 days with Compound 1 crystal at 25° C.,[1]; Kleptose 80 mg/mL,0.103 mg/mL
same,Assay at t = 0,[1]; Kleptose 90 mg/mL,0.116 mg/mL
same,Assay at t = 4 wks without Compound 1 crystal at 25° C.,[1]; Kleptose 90 mg/mL,0.115 mg/mL
same,Assay at t = 9 days with Compound 1 crystal at 25° C.,[1]; Kleptose 90 mg/mL,0.114 mg/mL
same,Assay at t = 0,[1]; Kleptose 100 mg/mL,0.117 mg/mL
same,Assay at t = 4 wks without Compound 1 crystal at 25° C.,[1]; Kleptose 100 mg/mL,0.115 mg/mL
same,Assay at t = 9 days with Compound 1 crystal at 25° C.,[1]; Kleptose 100 mg/mL,0.117 mg/mL
same,"proliferation (total, HSC and progenitor cell count)",[2],inhibition of proliferation
same,solubility,physchem,~170 mg/mL
same,number of colony forming cells,"[3]; 14 days in methocult media, samples MF13, MF14",reduced by Compound 1 in a dose dependent manner
same,IC50 in colony forming assay,[3]; compared with samples from healthy volunteers,lower than IC50s observed in samples from healthy volunteers
same,IC50,"[4]; read-out: Absolute IC50, GA0087-1st experiment",0.0203 µM
same,IC50,"[4]; read-out: Absolute IC50, GA0087-2nd experiment",0.0164 µM
same,IC50,"[4]; read-out: Relative IC50, GA0087-1st experiment",0.0163 µM
same,IC50,"[4]; read-out: Relative IC50, GA0087-2nd experiment",0.0152 µM
same,Maximal Inhibition,[5]; GA0087-1st experiment,90.71%
same,Maximal Inhibition,[5]; GA0087-2nd experiment,92.41%
same,activity in the GA0087 model,"[5]; ex vivo 3D assay, 7 days, single agent",shows activity
same,GSPT1 degradation,[6],dose dependent GSPT1 degradation
same,"effect on mTORC1 effectors (p4EBP1, phosphorylation of S6)",[6],no direct effect
same,difference in single agent effect on cell viability between cell lines,[7],no difference
same,single agent sensitivity,[8],more sensitive

# Source: US20190030018A1 (Celgene Corporation, priority 2017, published 2019)
